The values below come from US20240174596A1 (Northwestern University, priority 2021, published 2024).

One data set addresses T1, hOAT (Homo sapiens, UniProt P04181).
T1 construct: made in house; host or cells: E. coli BL21(DE3)
T1 sequence (P04181 26-439): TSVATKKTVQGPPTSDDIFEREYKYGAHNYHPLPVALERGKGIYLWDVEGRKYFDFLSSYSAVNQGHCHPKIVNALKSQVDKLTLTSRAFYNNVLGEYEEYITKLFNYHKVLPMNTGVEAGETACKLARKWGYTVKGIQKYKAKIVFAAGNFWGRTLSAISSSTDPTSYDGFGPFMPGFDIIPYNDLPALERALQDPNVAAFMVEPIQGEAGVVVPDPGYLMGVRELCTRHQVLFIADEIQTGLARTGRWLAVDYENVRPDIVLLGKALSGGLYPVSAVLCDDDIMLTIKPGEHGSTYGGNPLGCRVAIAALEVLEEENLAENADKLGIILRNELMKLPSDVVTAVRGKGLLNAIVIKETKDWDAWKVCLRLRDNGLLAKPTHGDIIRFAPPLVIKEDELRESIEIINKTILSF
In words: Partition ratio experiment (titration of hOAT). The format is biochemical. As to the method: FIG. 9. Titration of hOAT with SS-1-148. The loss of enzyme activity was measured as a function of the ratio of […] to enzyme concentration. Linear regression was used on the linear portion of the curves to obtain the X-intercept, which was the turnover number (partition ratio=turnover number−1).
The partition ratio was calculated using previous protocols.^8-10

Another data set has as its target T2, Asp-AT (Sus scrofa, UniProt P00503).
T2 construct: L-aspartate aminotransferase (Asp-AT) from the porcine heart; purchased Sigma-Aldrich G2751-2KU; host or cells: porcine heart
In words: Inhibition of Asp-AT. It is filed as biochemical, porcine. How it is done: All reagents for enzyme purification and assays were purchased from Sigma-Aldrich (St. Louis, MO, USA). […] All the enzyme assays for the inactivation, partition ratio, and dialysis experiment were recorded on a Synergy H1 hybrid multimode microplate reader (Biotek, USA) with transparent 96-well plates. […]
potassium phosphate at pH 7.4, 5.55 mM α-ketoglutarate, 1.11 mM NADH, 5.55 mM […], 5.55 units of malic dehydrogenase, and various concentrations of SS-1-148. […] The plate was shaken at room temperature for 1 min, and the absorbance was measured at 340 nm every 10 s for 90 min based on the conversion of NADH to NAD^+. The remaining Asp-AT activity percentage was calculated according to the corresponding concentrations. […]

A short description of data set [1]: Liver microsomal stability, mouse. The format is in vitro ADME. (In general: Liver microsomes are vesicles of endoplasmic reticulum, rich in cytochrome P450 enzymes.)
A short description of data set [2]: Liver microsomal stability, human. It is filed as in vitro ADME.
Data set [3] can be described thus: Plasma protein binding, mouse. It is filed as in vitro ADME.
Data set [4] is described as follows: Plasma protein binding, human. It is filed as in vitro ADME.
Another data set deals with hERG (Homo sapiens, UniProt Q12809). Kind of data set: hERG test. The format is in vitro ADME.
Sequence of hERG (Q12809 whole entry): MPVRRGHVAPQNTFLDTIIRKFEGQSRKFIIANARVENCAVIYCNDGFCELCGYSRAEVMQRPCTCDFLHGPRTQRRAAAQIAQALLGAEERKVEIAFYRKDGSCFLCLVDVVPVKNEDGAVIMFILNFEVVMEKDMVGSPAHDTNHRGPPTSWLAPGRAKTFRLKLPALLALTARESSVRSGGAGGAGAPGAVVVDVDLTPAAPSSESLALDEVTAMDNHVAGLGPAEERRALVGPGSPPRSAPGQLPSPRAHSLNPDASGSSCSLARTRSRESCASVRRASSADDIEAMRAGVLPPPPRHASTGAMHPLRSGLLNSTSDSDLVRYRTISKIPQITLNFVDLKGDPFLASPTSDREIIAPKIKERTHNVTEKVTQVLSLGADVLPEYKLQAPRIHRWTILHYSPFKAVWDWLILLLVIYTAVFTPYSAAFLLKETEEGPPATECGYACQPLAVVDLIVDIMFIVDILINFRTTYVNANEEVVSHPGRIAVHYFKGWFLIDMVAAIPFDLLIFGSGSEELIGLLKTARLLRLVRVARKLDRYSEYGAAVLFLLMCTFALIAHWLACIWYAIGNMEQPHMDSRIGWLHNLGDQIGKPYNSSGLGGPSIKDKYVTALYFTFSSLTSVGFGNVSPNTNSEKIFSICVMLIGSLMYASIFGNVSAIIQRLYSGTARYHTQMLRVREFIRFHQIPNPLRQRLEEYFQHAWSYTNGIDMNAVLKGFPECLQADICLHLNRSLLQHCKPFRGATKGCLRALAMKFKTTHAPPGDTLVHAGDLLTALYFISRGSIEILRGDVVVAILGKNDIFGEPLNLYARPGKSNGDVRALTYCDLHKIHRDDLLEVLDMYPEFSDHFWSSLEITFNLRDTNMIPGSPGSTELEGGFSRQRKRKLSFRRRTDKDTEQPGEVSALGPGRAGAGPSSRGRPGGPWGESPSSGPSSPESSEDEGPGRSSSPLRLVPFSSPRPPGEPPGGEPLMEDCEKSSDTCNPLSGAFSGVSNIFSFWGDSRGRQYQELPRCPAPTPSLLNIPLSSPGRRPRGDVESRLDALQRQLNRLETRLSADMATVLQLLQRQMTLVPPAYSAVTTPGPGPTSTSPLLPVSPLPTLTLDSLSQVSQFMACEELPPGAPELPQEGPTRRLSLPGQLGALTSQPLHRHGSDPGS
For a further data set, the target named is T3, CYP 1A2 (Homo sapiens, UniProt P05177).
T3 sequence (P05177 1-516): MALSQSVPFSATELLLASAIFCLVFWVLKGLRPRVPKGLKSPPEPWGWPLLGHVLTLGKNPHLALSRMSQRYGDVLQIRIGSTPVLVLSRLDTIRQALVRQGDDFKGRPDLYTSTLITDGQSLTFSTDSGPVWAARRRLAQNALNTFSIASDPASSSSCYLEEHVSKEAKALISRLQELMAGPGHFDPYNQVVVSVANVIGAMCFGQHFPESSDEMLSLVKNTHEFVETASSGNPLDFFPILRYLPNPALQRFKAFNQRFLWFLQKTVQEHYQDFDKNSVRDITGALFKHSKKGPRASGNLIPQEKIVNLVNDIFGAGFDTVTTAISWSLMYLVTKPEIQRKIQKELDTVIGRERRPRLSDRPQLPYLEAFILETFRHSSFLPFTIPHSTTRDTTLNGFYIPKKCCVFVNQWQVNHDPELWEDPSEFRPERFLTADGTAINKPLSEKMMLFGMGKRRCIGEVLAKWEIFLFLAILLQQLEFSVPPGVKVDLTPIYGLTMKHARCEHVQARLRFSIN
In words: CYP inhibition 1A2. It is filed as in vitro ADME.

The target of another data set is CYP 2D6 (Homo sapiens, UniProt P10635). In words: CYP inhibition 2D6. It is filed as in vitro ADME.
Sequence of CYP 2D6 (P10635 whole entry): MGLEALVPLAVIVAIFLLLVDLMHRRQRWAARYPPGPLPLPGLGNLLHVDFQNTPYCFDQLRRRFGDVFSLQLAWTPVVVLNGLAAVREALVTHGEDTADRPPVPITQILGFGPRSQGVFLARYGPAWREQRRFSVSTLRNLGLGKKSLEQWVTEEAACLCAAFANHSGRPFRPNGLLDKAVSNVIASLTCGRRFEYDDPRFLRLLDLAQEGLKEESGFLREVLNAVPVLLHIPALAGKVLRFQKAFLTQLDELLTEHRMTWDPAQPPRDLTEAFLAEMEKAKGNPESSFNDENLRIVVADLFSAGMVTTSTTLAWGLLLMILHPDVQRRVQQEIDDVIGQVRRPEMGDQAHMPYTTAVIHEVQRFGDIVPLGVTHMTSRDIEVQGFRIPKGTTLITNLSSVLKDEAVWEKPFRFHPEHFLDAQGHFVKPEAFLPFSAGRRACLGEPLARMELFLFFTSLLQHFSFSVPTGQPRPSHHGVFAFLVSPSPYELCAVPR
In a further data set the target is CYP 2C9 (Homo sapiens, UniProt P11712). In words: CYP inhibition 2C9. It is filed as in vitro ADME.
Sequence of CYP 2C9 (P11712 whole entry): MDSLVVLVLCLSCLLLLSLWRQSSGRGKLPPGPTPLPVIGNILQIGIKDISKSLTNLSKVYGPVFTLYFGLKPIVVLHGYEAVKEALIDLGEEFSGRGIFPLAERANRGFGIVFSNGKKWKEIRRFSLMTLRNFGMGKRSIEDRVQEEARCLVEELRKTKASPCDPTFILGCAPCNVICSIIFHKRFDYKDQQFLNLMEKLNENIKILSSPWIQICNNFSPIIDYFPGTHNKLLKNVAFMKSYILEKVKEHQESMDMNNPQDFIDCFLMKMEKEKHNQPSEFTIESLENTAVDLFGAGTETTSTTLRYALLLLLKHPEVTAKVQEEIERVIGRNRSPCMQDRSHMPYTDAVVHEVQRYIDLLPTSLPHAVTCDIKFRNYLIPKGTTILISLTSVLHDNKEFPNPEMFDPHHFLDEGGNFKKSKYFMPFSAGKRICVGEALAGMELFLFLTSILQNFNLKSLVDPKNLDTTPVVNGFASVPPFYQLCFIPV
The next data set addresses CYP 2C19 (Homo sapiens, UniProt P33261). Kind of data set: CYP inhibition 2C19. It is filed as in vitro ADME.
In the next data set the target is CYP 3A4 (Homo sapiens, UniProt P08684). In words: CYP inhibition 3A4. The format is in vitro ADME.
Sequence of CYP 3A4 (P08684 whole entry): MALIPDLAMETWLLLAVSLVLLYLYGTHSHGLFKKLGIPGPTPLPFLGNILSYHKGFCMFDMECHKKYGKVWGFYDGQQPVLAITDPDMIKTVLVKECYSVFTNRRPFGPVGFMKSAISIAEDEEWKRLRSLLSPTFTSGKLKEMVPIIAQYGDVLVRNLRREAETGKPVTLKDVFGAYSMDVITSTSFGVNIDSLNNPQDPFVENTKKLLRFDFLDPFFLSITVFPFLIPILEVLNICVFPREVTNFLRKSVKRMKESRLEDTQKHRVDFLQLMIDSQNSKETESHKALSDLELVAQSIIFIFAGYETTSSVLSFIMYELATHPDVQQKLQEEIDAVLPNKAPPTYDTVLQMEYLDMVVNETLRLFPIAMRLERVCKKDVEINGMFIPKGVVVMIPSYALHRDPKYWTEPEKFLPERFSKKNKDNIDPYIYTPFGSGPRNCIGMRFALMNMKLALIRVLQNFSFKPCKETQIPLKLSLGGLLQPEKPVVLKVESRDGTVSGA
A short description of another data set: Brain/plasma PK studies. It is filed as in vivo. The conditions noted are these: brain, read-out: B/P ratio.

As a reminder, the Ki is a dissociation constant, usually derived from enzyme kinetics or from competition with a known ligand. Usually fraction unbound stands for the share of the substance not bound to proteins or other matrix. A higher fraction unbound goes with weak binding. One may read the IC50 as the concentration needed to halve the response being measured. High values mean weaker potency, low ones greater potency.

Where a name gives a salt, the structure may show the parent alone. Read-outs that look alike come from different tables or passages of the source.

T2 sequence (P00503 2-413 limits assumed): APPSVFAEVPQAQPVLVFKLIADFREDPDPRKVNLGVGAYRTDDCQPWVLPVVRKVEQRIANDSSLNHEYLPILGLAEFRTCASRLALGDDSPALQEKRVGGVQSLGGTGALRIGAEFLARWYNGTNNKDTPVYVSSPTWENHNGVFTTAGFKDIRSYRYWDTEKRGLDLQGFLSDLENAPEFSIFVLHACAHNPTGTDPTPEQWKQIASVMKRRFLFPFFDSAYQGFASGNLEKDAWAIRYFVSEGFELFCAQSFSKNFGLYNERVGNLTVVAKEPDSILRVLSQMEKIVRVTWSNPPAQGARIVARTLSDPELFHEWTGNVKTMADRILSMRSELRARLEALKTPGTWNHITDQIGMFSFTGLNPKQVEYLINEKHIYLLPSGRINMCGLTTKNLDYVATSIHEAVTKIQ
Sequence of CYP 2C19 (P33261 whole entry): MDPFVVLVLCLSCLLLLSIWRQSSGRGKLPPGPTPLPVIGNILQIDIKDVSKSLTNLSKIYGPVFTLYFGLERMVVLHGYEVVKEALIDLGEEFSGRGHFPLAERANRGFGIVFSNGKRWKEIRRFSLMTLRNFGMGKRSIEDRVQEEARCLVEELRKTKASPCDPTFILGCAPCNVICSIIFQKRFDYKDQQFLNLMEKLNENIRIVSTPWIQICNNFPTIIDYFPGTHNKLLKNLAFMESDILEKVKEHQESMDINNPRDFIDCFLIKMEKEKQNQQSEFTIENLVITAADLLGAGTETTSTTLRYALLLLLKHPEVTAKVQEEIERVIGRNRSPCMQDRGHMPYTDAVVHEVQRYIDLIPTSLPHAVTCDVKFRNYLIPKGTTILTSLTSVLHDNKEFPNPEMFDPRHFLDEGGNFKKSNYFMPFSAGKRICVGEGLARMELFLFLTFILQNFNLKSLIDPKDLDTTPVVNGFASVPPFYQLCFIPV

Take `N[C@H]1C=C(C(=O)O)CC1(F)F` [SS-1-148, (S)-3-Amino-4,4-difluorocyclopent-1-enecarboxylic acid hydrochloric acid salt]: the “equivalents turned over per active site for each equivalent leading to inactivation” value at hOAT is reported as 34.9 equivalents. The Ki at Asp-AT (read-out: Off-target effects (Ki, mM) Asp-AT) is over 20 mM. In addition, the “inhibition on Asp-AT” value at Asp-AT (up to 10 mM) is reported as “did not show noticeable inhibition”. Also, the “Liver microsomal stability (t1/2) Mouse” value in data set [1] was “N/C”. In addition, the “Liver microsomal stability (t1/2) Human” value in data set [2] is reported as “N/C”. Further, the fraction unbound in [3] and in data set [4] was 1 throughout. The IC50 against hERG is over 30 µM; on CYP 1A2 it was over 100 µM; on CYP 2D6, over 100 µM; at CYP 2C9, over 100 µM; against CYP 2C19 it was over 100 µM; at CYP 3A4, over 100 µM. Also, the Kp at 0.25 h in the data set “Brain/plasma PK studies” (IV (5 mg/kg)) turned out to be 0.2; in the data set “Brain/plasma PK studies” (PO (30 mg/kg)), 0.14. Also, in “Brain/plasma PK studies” (PO (30 mg/kg), 2 h), the Kp at 2 h came out at 0.26.
